Assay results reported in patent publication US6887897B2, “Calcium glutarate supplement and phosphorus binder” (Mission Pharmacal Company, priority 2001, dated 2005).

How the values were obtained:
[1] = aqueous solubility of calcium salts; type: physicochemical
Experimental: (§1) The following in-vitro tests were conducted to test the solubility and ability of calcium glutarate to bind with phosphates. The tests included analysis for monobasic, Ca(Na2PO4)2, dibasic, CaNaPO4, and tribasic, Ca(PO4)2 binding. The three examples are as follows.

[2] = in-vitro test of ability of calcium glutarate to bind with phosphates (free calcium in filtrate by atomic absorption spectrometry); details: filtered through 0.45-μm nylon filter
Experimental: as §1
An aqueous solution of calcium glutarate was mixed with a twice over molar solution of sodium phosphate. A suspension formed which was filtered by a vacuum through a 0.45-μm nylon filter. The resulting filtrate was assayed for free calcium by atomic absorption spectrometry. The percent of calcium recovered in solution was 0.1%.
An aqueous solution of calcium glutarate was mixed with an equi-molar solution of sodium phosphate. A suspension formed which was filtered by vacuum through a 0.45-μm nylon filter. The resulting filtrate was assayed for free calcium by atomic absorption spectrometry. The percent of calcium recovered in solution was 0.1%.
An aqueous solution of calcium glutarate was mixed with a two-thirds molar solution of sodium phosphate. A suspension formed which was filtered by vacuum through a 0.45-μm nylon filter. The resulting filtrate was assayed for free calcium by atomic absorption spectrometry. The percent of calcium, recovered in solution was 4.5%.

SMILES: O=C([O-])CCCC(=O)[O-].[Ca+2] [calcium glutarate]
- solubility [1]: about 5.2 gm per 100 cc
- percent of calcium recovered in solution ([2]; mixed with a twice over molar solution of sodium phosphate): 0.1%
- percent of calcium recovered in solution ([2]; mixed with a two-thirds molar solution of sodium phosphate): 4.5%
- percent of calcium recovered in solution ([2]; mixed with an equi-molar solution of sodium phosphate): 0.1%
